The record followed here is patent US20090197906A1, “REVERSION OF MALIGNANT PHENOTYPE WITH 9-HYDROXY ELLIPTICINE DERIVATIVES” (priority 2006, published 2009).

The test system of assay [1] is NIH 3T3 EF cells. The assay can be described thus: F-actin network rescue, FITC-phalloidin fluorescence microscopy. The class given is cell-based. Conditions: non cytotoxic concentrations (100 nM and 200 nM), three days. How it is done: Malignant NIH 3T3 EF cells were seeded onto glass cover slips at a density of 2000 cells per cm^2. The next day, BA016DD537 was applied to NIH 3T3 EF cells at various non cytotoxic concentrations (100 nM and 200 nM). Three days later, cells were fixed for 10 min in PBS containing 3.7% formaldehyde at 4° C. before examination with a fluorescence microscope. The formaldehyde solution was neutralized with 50 mM NH4Cl. Extraction was carried out for 4 min with 0.4% Triton X-100 in PBS. Cells were incubated for 1 h with blocking buffer (3% bovine serum albumin in PBS) and then for 20 min with FITC-phalloidin (Sigma) at room temperature. Cover slips were mounted in Vectashieldk (Zymed) and observed through a fluorescence microscope (Nikon).

For assay [2], the system named is actin in NIH 3T3 EF extract. Description: fluorescence anisotropy assay of actin dynamics in cell extract. The class given is biochemical. Conditions: for effect on actin-F elongation rate constant and actin-F steady state value: NIH 3T3 EF cytosolic fractions; for k (rate constant of F-actin elongation) / Δ mA (anisotropy enhancement, steady state F-actin): malignant NIH 3T3 EF extract, compound at 200 nM. How it is done:
Actin dynamics is known to be impaired in tumor cells with a subsequent decrease of F-actin to G-actin ratio. Actin dynamics has been quantified in tumor cell extracts using the fluorescence anisotropy assay which gains access to rate constant of F-actin elongation (k) and steady state concentration of F-actin (Δ mA).
All reactions were carried out at 22° C. and fluorescence anisotropy signal was recovered at 520 nm with excitation at 490 nm in a Beacon 2000 (Panvera). Alexa 488 actin (Molecular Probes) was centrifuged at 35 000 rpm for 2 h at 4° C. to sediment residual actin polymers in a Beckman L5-50B ultracentrifuge. […] 80% of the supernatant was withdrawn; the concentration was defined through fluorescence measurements (excitation at 490 nm and signal recovering at 520 nm). The ultracentrifuged actin concentration was calculated using the non ultracentrifuged Alexa 488 actin as a standard. The supernatant was aliquoted, frozen in liquid nitrogen and stored at −80° C.
Before experiment, an aliquot of ultracentrifuged Alexa 488 actin was diluted to a concentration of […] in G buffer (5 mM Tris pH 8.1, 2 mM CaCl2, 0.2 mM DTT, 0.2 mM ATP). 3 μl of diluted Alexa 488 actin was mixed in 168 μl of G buffer and actin monomers anisotropy was measured before the addition of 4 μl of polymerisation buffer (2.5 M KCl, 50 mM MgCl2, 25 mM ATP), 5 μl of G buffer in the presence or in the absence of the chemical molecule and 20 μl cellular extract of normal NIH 3T3 cells or malignant NIH 3T3 EF cells at 2 mg/ml. The final concentration of Alexa 488 actin was 4 nM. The ratio of unlabelled to labelled actin was about 140/4 nM. Measurements were made each 10 sec for 200 sec. Actin monomers anisotropy value was subtracted, yielding the anisotropy enhancement (Δ mA). The data were fitted with the equation Y=Ymax. [1−exp(−K.X)]. The curves start at zero and ascend to Ymax that corresponds to the steady state anisotropy value (Δ mA eq), with a rate constant K. Y is anisotropy values of which monomers anisotropy is subtracted and X is the time.

Assay [3] relates to NIH 3T3 EF cells. The assay can be described thus: wound healing assay (cell motility). The class given is cell-based. To be noted: non cytotoxic concentrations. Here is the method: Wound healing assay was performed to evaluate the effect of BA016DD537 on motility of malignant NIH 3T3 EF cells and melanoma cell lines B16F10 and B16BL6. All the cells were incubated at 37° C. in a humidified 5% CO2 atmosphere. About 100 000-200 000 cells were seeded in a 6-well culture plate and BA016DD537, at the different concentrations, was added 24 hours later. Cells were grown for 3 days to confluence about 90-95% and small scratch-wounds (about 200 μm-1 mm width) were made with a pipette tip. Cell debris were removed, then the cultures were incubated in complete medium for 10 h in the presence of the same concentration of BA016DD537. Then, the cells were fixed for 10 min in PBS containing 3.7% formaldehyde at 4° C.

For another assay, the system named is Melanoma B16 cells. Description: antitumor activity, i.p. grafted B16 melanoma, survival. The class given is in vivo, B6D2F1 mice. Here is the method: Antitumor activity against B16 melanoma can be assessed in mice using i.p. graft of malignant cells followed by i.p. treatment. This type of protocol which by-pass various biodisponibility parameters gives information roughly on the maximal antitumor activity which can be expected for a given tumor.
Melanoma B16 cells (4×10^5) were injected in B6D2F1 mice using i.p. route at J0. Drugs, dissolved in sterile distilled water (0.5 ml) were injected daily using as well i.p. route from J1 to J9 at various concentrations. Control mice received distilled water only according the same protocol.
Treated and control mice were counted daily. TIC (mean survival of treated mice/mean survival of control mice) was calculated at J9.

For assay [4], the system named is B16BL6 melanoma cell line. Description: MTT cell viability, combination with retinoids. The class given is cell-based. Conditions: 10 nM retinoid only, 3 days. How it is done:
The ex vivo cell viability inhibition by BA016DD537 in the presence of the retinoids 13CRA and ATRA was tested against B16BL6 melanoma cell line using the 3-(4,5 dimethylthiazol-2-yl)-2,5-diphenyl-2H-tetrazolium bromide (MTT) calorimetric assay.
(§1) About 1000 cells were seeded in a 96-well culture plate 24 hours before adding increasing concentrations of BA016DD537, from 1 pM to 100 pM, in the absence or in the presence of 10 nM of retinoids. The plate was incubated at 37° C. for 3 days. 10 μl MTT stock solution (5 mg/ml in phosphate buffer saline) was added to 90 μl of complete medium in each well, the incubation was continued for 3 h at 37° C. 100 μl of lysis buffer (20% sodium dodecyl sulfate, 10 mM HCl, 1×PBS) was added to each well, and the plate was incubated overnight. The absorbance was determined using an Integrated EIA Management System (Labsystem) at a wavelength of 570 nm.

For assay [5], the system named is B16F10. Description: cloning assay in methylcellulose (colony formation). To be noted: Mus musculus, B16-F10, 216 h; B16F10, clones counted after 9 days (Example 11); read-out: B16F10 Inhibition of colony formation IC50. The class given is cell-based, murine. Here is the method:
Cells were embedded in complete culture medium supplemented with 0.8% methylcellulose (Methocel MC4000, Sigma), seeded in triplicate into 35-mm dishes (Greiner Bio-one Ref 627102, Dominique Dutscher) and incubated at 37° C. in a humidified 5% CO2 atmosphere. The number of cells seeded was 1000 cells per dish. After one to three weeks, according to cell lines, macroscopic clones were counted.
Cells were embedded in complete culture medium supplemented with 0.8% methyl-cellulose (Methocel MC4000, Sigma), seeded in triplicate into 35-mm dishes and incubated at 37° C. in a humidified 5% CO2 atmosphere. The number of cells seeded was 1000 cells per dish. After 9 days, macroscopic clones of murine melanoma cell line B16F10 were counted.

In a further assay the test system is PANC-1. The assay can be described thus: SRB (sulforhodamine B) cell proliferation assay. The class given is cell-based, human. Conditions: Homo sapiens; PANC-1 (Example 11); read-out: IC50 (SRB Test-72 h). Here is the method: (§2) After an incubation period, cell monolayers are fixed with 10% (wt/vol) trichloroacetic acid and stained for 30 min, after which the excess dye is removed by washing repeatedly with 1% (vol/vol) acetic acid. The protein-bound dye is dissolved in 10 mM Tris base solution for optic density determination (OD) at 510 nm using a microplate reader.
(§3) The proliferation rates were calculated from the OD readings using the untreated cells as 100%.
(§4) The effects BA016FZ539 on the growth of MIA PaCa-2 and PANC-1 pancreatic cells were tested over a range of concentrations from 500 μM to 0.16 μM and measured by using the SRB calorimetric assay.
(§5) About 5000 MIA PaCa-2 or PANC-1 cells were seeded in a 96-well culture plate while adding increasing concentrations of BA016FZ539.
(§6) Growth studies were performed using both MTT and SRB calorimetric assay (Sigma). About 1500 B16F10 or 3000 pancreatic cells (MIA PaCa-2 and PANC1) were seeded in a 96-well culture plate before adding increasing concentrations of monomesylate or bimesylate.
(§7) The plates were incubated at 37° C. for 3 days and then were treated depending on SRB or MTT protocols (see material and methods).
(§8) In these two cases, the proliferation rates were calculated from the OD readings using the untreated cells as 100%.

A further assay deals with Mia Paca-2. Description: SRB (sulforhodamine B) cell proliferation assay. The class given is cell-based, human. Conditions: Homo sapiens; Mia Paca-2 (Example 11); read-out: IC50 (SRB Test-72 h). How it is done:
as §2, §3, §4, §5, §6, §7, §8

For assay [6], the system named is B16F10. Description: MTT cell proliferation assay. The class given is cell-based, murine. Conditions: Mus musculus, B16-F10; B16F10 (Example 11); read-out: IC50 (MTT Test-72 h). Here is the method: Growth studies were performed using the [3-(4,5 dimethylthiazol-2-yl)-2,5-diphenyl-2H-tetrazolium bromide] (Sigma) calorimetric assay.
as §1, with “1500 to 5000 cells, according to the cell line,” for “1000 cells”, “BA016DD537” for “BA016DD537, from 1 pM to 100 pM, in the absence”, “BA016FZ539.” for “in the presence of 10 nM of retinoids.”, “(10%” for “(20%”, “1% HCl 1N; pH 4.7)” for “10 mM HCl, 1×PBS)”, “nm. The proliferation rates were calculated from the OD readings using the untreated cells as 100%.” for “nm.”
as §6, §7, §8

Assay [7] deals with B16F10. Description: SRB (sulforhodamine B) cell proliferation assay. The class given is cell-based, murine. Conditions: Mus musculus, B16-F10; B16F10 (Example 11); read-out: IC50 (SRB Test-72 h). Here is the method:
as §6, §7, §8

The structures appear in SMILES notation.

`CC(=O)[O-].CC[n+]1ccc2c(C)c3[nH]c4ccc(O)cc4c3c(C)c2c1` [BA016CA107, 9-hydroxy-2(beta-ethyl)-ellipticinium acetate]: the “rebuilding of actin network / morphology” value in the assay on NIH 3T3 EF cells [1] is “neither 9-hydroxy-2-ethyl)-ellipticinium acetate, nor 9-hydroxy-2(methyl)-ellipticinium acetate (Celiptium) were found active”. Moreover, in [2], the “effect on actin-F elongation rate constant and actin-F steady state value” was “do not increase the actin-F elongation rate constant and the actin-F steady state value”; the “k (rate constant of F-actin elongation)” value turned out to be 0.0280 s⁻¹; the “Δ mA (anisotropy enhancement, steady state F-actin)” value turned out to be 42.14. For the same molecule, the “migration of treated malignant cells into the wound” value in the assay with NIH 3T3 EF cells [3] was “migrate in the same way as non treated malignant cells”.
Turning to `Cc1c2cc[n+](C)cc2c(C)c2c1[nH]c1ccc(O)cc12` [BA016CA77, 9-hydroxy-2(beta-methyl)-ellipticinium acetate], in the assay on NIH 3T3 EF cells [1], the “rebuilding of actin network / morphology” value is reported as “neither 9-hydroxy-2-ethyl)-ellipticinium acetate, nor 9-hydroxy-2(methyl)-ellipticinium acetate (Celiptium) were found active”. Also, in the assay on Melanoma B16 cells (0.125 mg/kg/inj. i.p. daily J1 to J9), the “T/C (%) (mean survival of treated mice/mean survival of control mice)” value came out at 121%. Moreover, the “T/C (%) (mean survival of treated mice/mean survival of control mice)” value with Melanoma B16 cells (0.25 mg/kg/inj. i.p. daily J1 to J9) stood at 122%. Further, the “T/C (%) (mean survival of treated mice/mean survival of control mice)” value with Melanoma B16 cells (0.5 mg/kg/inj. i.p. daily J1 to J9) stood at 58%. Further, the “antitumor activity against B16 melanoma (T/C>125% = significant)” value in the assay with Melanoma B16 cells (i.p. graft, i.p. treatment) is given as “no significant antitumor activity”. In assay [2], the “effect on actin-F elongation rate constant and actin-F steady state value” is “do not increase the actin-F elongation rate constant and the actin-F steady state value”; the “k (rate constant of F-actin elongation)” value was 0.0416 s⁻¹; the “Δ mA (anisotropy enhancement, steady state F-actin)” value is recorded as 38.33. In addition, the “migration of treated malignant cells into the wound” value in the assay with NIH 3T3 EF cells [3] is given as “migrate in the same way as non treated malignant cells”.
Consider `CC1=C(/C=C/C(C)=C/C=C/C(C)=C/C(=O)O)C(C)(C)CCC1` [ATRA, all-transretinoic acid, reference compound], for which the “cell viability inhibition (MTT)” value in assay [4] is given as “No cell viability inhibition”.
Still for that read-out and setting: with `CC1=C(/C=C/C(C)=C/C=C/C(C)=C\C(=O)O)C(C)(C)CCC1` [13CRA, 13-cis-retinoic acid, reference compound] the entry was “No cell viability inhibition”.
`Cc1c2cc[n+](CCN3CCCCC3)cc2c(C)c2c1[nH]c1ccc(O)cc12` [Bimesylate]: the IC50 in the assay on B16F10 [5] amounted to 21 nM; in the assay on PANC-1 it was 37600 nM; in the assay on Mia Paca-2 it was 2500 nM; with B16F10 [6], 2800 nM; with B16F10 [7], 1800 nM.
